Experimental data: article PMC10989073, “Antineoplastic effect of compounds C14 and P8 on TNBC and radioresistant TNBC cells by stabilizing the K-Ras4B^G13D/PDE6δ complex” (Frontiers in Oncology, 2024)

Key:
Type in all cases: cell-based, human
[1] = test system: AKT and ERK phosphorylation in MDA-MB-231 cells; assay: Western blotting of pAKT and pERK; conditions: MDA-MB-231, IC50-48 for 3 h, EGF 100 ng/ml 10 min, densitometry
Protocol: (§1) To determine the effect of the C14 and P8 compounds over the protein effectors of K-Ras4B, AKT, and ERK, immunoblotting assays were conducted with specific antibodies. In brief, MCF-10A, MDA-MB-231, and MDA-MB-231RR cells were plated in 100-mm culture dishes until 80% of confluents. Cell adhesion was allowed for 24 h. […] After pre-treatment, cells were stimulated with 100 ng/ml EGF for 10 minutes to promote AKT and ERK activation. Later, the whole-cell extracts were obtained by the lysis of the cells (Cytoskeleton) in the presence of proteases and phosphatase inhibitors. Subsequently, the protein extracts were incubated at 4°C for 40 minutes to be clarified by centrifugation for 10 minutes at 14,000 rpm, at 4°C. The protein concentration of each extract was determined by using the Precision Red Advanced Protein Assay Reagent (Cytoskeleton) Then, approximately 25 μg of protein extract was electrophoresed in 10% sodium dodecyl sulfate–polyacrylamide gel electrophoresis (SDS-PAGE) and transferred to polyvinylidene fluoride (PVDF) membranes (Millipore, Billerica, MA, USA). Blots were probed using the following primary antibodies: Total ERK (Cell Signaling, Danvers, MA, USA), pERK (Cell Signaling), Total AKT (Cell Signaling), pAKT (Cell Signaling), GSK3β (Cell Signaling), and cyclin D1 (Abcam) at a 1:1,000 dilution. As a control, an anti-GAPDH antibody (GeneTex, Irvine, CA, USA) was employed at a 1:100,000 dilution and γ-Tubulin (Invitrogen) 1:5,000. Densitometric analysis of blots was performed using the software ImageJ version 1.45 (National Institutes of Health, Bethesda, […], USA).

[2] = test system: AKT and ERK phosphorylation in MDA-MB-231RR cells; assay: Western blotting of pAKT and pERK; conditions: IC50-48 for 3 h, EGF 100 ng/ml 10 min, densitometry
Protocol: as §1

[3] = test system: AKT and ERK phosphorylation in MCF-10A cells; assay: Western blotting of pAKT and pERK; conditions: IC50-48 for 3 h, EGF 100 ng/ml 10 min, densitometry
Protocol: as §1

[4] = test system: cyclin D1 and GSK3β in MCF-10A cells; assay: Western blotting of cyclin D1 and GSK3β; conditions: 3 h, densitometry; for reduction in cyclin D1 protein: C14 and P8 at IC50-24 (Figure 7 legend); for reduction in GSK3β: IC50-24 (Figure 7 legend)
Protocol: as §1

[5] = test system: Ras-GTP in MDA-MB-231 cells; assay: Ras activation pull-down assay (Raf-RBD); conditions: MDA-MB-231, 3 h pre-treatment at IC50-48H, EGF 100 ng/ml 10 min
Protocol: (§2) Subsequently, the cells were stimulated with epidermal growth factor (EGF) (100 ng/ml) for 10 minutes. Lysates (1 mg/ml) were exposed to Ras GTP-binding protein (Raf-RBD), following the manufacturer’s instructions. Experiments for each cell type and condition were repeated three times.

[6] = test system: Ras-GTP in MDA-MB-231RR cells; assay: Ras activation pull-down assay (Raf-RBD); conditions: 3 h pre-treatment at IC50-48H, EGF 100 ng/ml 10 min
Protocol: as §2

MDA-MB-231 cells = assay: Cell cycle analysis (propidium iodide, flow cytometry); conditions: MDA-MB-231, 3 h at IC50-48H; control 10.0%
Protocol: (§3) After 3-h incubation, cells were harvested, washed twice in ice-cold PBS, and fixed overnight in 70% ethanol at 4°C. Then, cells were washed in PBS, collected by centrifugation, and stained with staining buffer (PBS with 50 µg/ml propidium iodide and 100 µg/ml RNase A).

MDA-MB-231RR cells = assay: as above; conditions: 3 h at IC50-48H, control 35.6%
Protocol: as §3

MCF-10A cells = assay: Clonogenic assay; conditions: 10 to 12 days, C14 and P8 at IC50-48, cisplatin 100 µM, doxorubicin 0.5 µM
Protocol: The principal aim of a clonogenic assay is to evaluate the effect of chemotherapy agents or new drugs by the measurement of their ability to arrest tumor cell division and their ability to develop new colonies after their exposure to these new drugs ([56]). Therefore, the colony formation ability of the cell lines MCF-10A, MDA-MB-231, and MDA-MB-231RR was evaluated after their exposure to the C14 and P8 compounds. In brief, breast cancer cell lines were cultured in 6-well plates (Corning), seeding 300 cells per well, and incubated at 37°C in 5% CO2 for 24 h. Compounds C14 and P8 were added at the maximum evaluated concentration IC50-48. As controls, cells without treatment and cells treated in the presence of a vehicle (DMSO at 0.66%) were employed (Sigma-Aldrich). […] After 10 days of treatment, cells were fixed with 4% PFA and stained with 0.1% crystal violet in citric acid (Sigma-Aldrich) for 15 minutes. Subsequently, the dye present in the cells was extracted using isopropanol and read at 570 nm in a Synergy-HTX microplate reader (BioTek). Each test was performed in triplicate. Data were expressed as % colonies relative to the untreated control ([56]).

[7] = Apoptosis/necrosis assay (Annexin V–propidium iodide, flow cytometry); conditions: human, MCF-10A cells, 24 h at IC50-24, flow cytometry
Protocol: Apoptosis and necrosis were determined using the Apoptosis/Necrosis Detection kit (Abcam, Cambridge, UK) according to the manufacturer’s instructions. In brief, approximately 500,000 cells were seeded in 6-well plates (Corning) for 24 h. […] Cells were harvested and collected by centrifugation. All the samples were analyzed in triplicate using flow cytometry equipment FACSCalibur instrument (BD Biosciences, San Jose, CA, USA) at […] and 575-nm emission. Data analysis was performed using the FlowJo software (Tree Star Inc., Ashland, OR, USA). All experiments were performed in triplicate.

SMILES	reduction in pAKT [1]	reduction in pERK [1]	reduction in pAKT [2]	reduction in pERK [2]	reduction in pAKT [3]	reduction in pERK [3]	reduction in cyclin D1 protein [4]	reduction in GSK3β [4]	reduction in Ras-GTP levels [5]	decrease in Ras-GTP levels [6]	percentage of cells in G2/M (MDA-MB-231 cells)	percentage of cells in S phase (MDA-MB-231RR cells)	reduction of colony growth (MCF-10A cells)	viability at 24 h [7]
CN(CC(=O)NC1CCOc2ccccc21)Cc1cccc(Cl)c1 (stereo not drawn) [C14, 2-[(3-chlorophenyl)-methyl-methyl-amino]-N-croman-4-yl-acetamide]	up to 60%	up to 70%	> 70%	approximately 30%	25%	40%	40%	10%	20%	approximately 20%	6.4%	20.7%	–	–
O=C(CN1CCN(c2cccc(Cl)c2)CC1)N[C@@H]1CCOc2ccccc21 [P8, 2-[4-(3-chlorophenyl)piperazin-1-yl]-N-[(4R)-chroman-4-yl]acetamide]	up to 70%	up to 70%	> 70%	35%	25%	40%	40%	40%	over 80%	over 60%	8.2%	26.4%	48%	94.3%
N.N.[Cl][Pt][Cl] [Cisplatin, cisplatin, reference compound]	–	–	–	–	–	–	–	–	–	–	–	–	95%	–
